The target of the experiment is HTR4 (Homo sapiens, UniProt Q13639). The settings on record: agonist; pH 7.0, 30 °C.
Chain of HTR4 (Q13639 whole entry): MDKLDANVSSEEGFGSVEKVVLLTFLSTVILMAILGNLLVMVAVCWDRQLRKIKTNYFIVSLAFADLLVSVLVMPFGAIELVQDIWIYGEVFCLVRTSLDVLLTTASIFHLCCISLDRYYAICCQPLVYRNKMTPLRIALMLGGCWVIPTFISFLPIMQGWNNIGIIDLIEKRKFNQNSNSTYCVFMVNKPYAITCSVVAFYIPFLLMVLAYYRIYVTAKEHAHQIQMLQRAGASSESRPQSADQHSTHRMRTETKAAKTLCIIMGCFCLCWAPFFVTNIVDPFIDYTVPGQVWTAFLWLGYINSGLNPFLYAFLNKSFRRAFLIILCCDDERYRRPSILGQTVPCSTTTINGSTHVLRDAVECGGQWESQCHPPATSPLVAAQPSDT

Consider `NCCc1c[nH]c2ccccc12` [tryptamine], for which the EC50 entry was “tryptamine agonism of HTR4 and ADRA2B”.
